Test results from patent US10434083B2, “Transmammary delivery of cyclooxygenase-2 inhibitors for analgesia in neonates” (Iowa State University Research Foundation, Inc., priority 2018, dated 2019).

Experiment: in vivo
Design: species or system swine
Details: for AUMC / AUMClast / AUCINF / AUC_Exp / AUC∞ extrpl / Lamda_HL / Lamda_Z / λZ / T1/2λZ: both; for Lamda_HL / Lamda_Z / λZ / T1/2λZ: swine
Experimental: Blood samples for firocoxib determination were collected from the sows and three piglets/litter (two male and one female piglet at each time point) at 0, 2, 4, 6, 8, 12, 24, 48, 72, 96, and 120 h post-drug injection to the sow. The blood sample from each sow (8 mL/sample) was collected via the left or right jugular vein using a 25.4-mm, 16-gauge hypodermic needle (Air-Tite Products, Virginia Beach, Va.) attached to a 12-mL Luer-Lok syringe (TycoHealth Care, Mansfield, Mass.). During blood collection, a pig snare was used for manual restraint of each sow in her crate. The blood samples (2 mL/sample) from the piglets were collected from the left or right cranial vena cava using a 3.8-cm, 20-gauge hypodermic needle (TycoHealth Care, Mansfield, Mass.) attached to a 3-mL syringe (TycoHealth Care, Mansfield, Mass.). Physical restraint of the piglet was achieved by placing the animal in a supine position during sample collection. Blood samples were transferred to 6-mL evacuated tubes that contained lithium heparin (Vacuette plasma tubes, Greiner Bio-One, Monroe, N.C.) that were stored on ice for up to 2 h before processing. The blood samples were centrifuged for 10 min at 1,500×g. The plasma was then removed, placed in cryovials, and frozen at −80° C. until analysis.
On Day 0, the pharmacokinetic portion of the study commenced. The test article was administered intramuscularly in the right neck to sows. Blood samples for Firocoxib determination were collected by jugular venipuncture from sows and 3 piglets/litter (2 male and one female at each timepoint) at 0, 2, 4, 6, 8, 12, 24, 48, 72, 96 and 120 hours after drug injection in the sow.
Plasma concentrations of firocoxib were determined using high-pressure liquid chromatography (Agilent 1100 Pump, Column Compartment and Autosampler, Agilent Technologies, Santa Clara, Calif., USA) with mass spectrometry detection (LTQ Ion Trap, Thermo Scientific, San Jose, Calif., USA). Briefly, frozen samples or standards were thawed at room temperature and rigorously vortexed once completely thawed. […] Plasma samples, plasma spikes, plasma quality control samples, and blanks (100 μL) were then protein-precipitated in 1.5-mL microcentrifuge tubes with 400 μL acetonitrile/0.1% formic acid. A d6-firocoxib internal standard was incorporated into the acetonitrile precipitating agent at a concentration of 200 ng/mL. The samples were vortexed for 5 seconds after addition of the acetonitrile and centrifuged for 20 min at 3,773×g to sediment the protein pellet. Following centrifugation, the supernatant was poured into cell culture tubes and evaporated to dryness in a Turbovap concentration evaporator at 48° C. The tube contents were reconstituted with 150 μL 25% acetonitrile and transferred to autosampler vials equipped with 300-μL glass inserts. The samples were centrifuged at 770×g before liquid chromatography-mass spectroscopy (LC-MS) analysis.
Twelve calibration spikes were prepared in blank porcine plasma in the concentration range of 1-5,000 ng/mL for the samples from the sows. The samples from the piglets were analyzed using a narrower range of calibration spikes of 1-500 ng/mL. A linear (1/X) fit was used for the piglet plasma samples and the narrower 1-500 ng/mL concentration range. A quadratic (1/X) fit was used for the sow plasma samples and the 1-5,000 ng/mL concentration range.
Plasma and tissue firocoxib concentrations were determined using high-pressure liquid chromatography (Agilent 1100 Pump, Column Compartment and Autosampler, Agilent Technologies, Santa Clara, Calif.) with mass spectrometry detection (LTQ Ion Trap, Thermo Scientific, San Jose, Calif.). A 25-μL injection volume was used for the LC-MS analysis. The mobile phases were A (0.1% formic acid in water) and B (0.1% formic acid in acetonitrile), at flow rates of 0.275 mL/min. […]

CC1(C)OC(=O)C(OCC2CC2)=C1c1ccc(S(C)(=O)=O)cc1 [firocoxib]
AUC(0-inf) (both sexes, pig, 0.5 mg/kg): 0.69 µg·h/mL
AUC(0-t) (both sexes, pig, 0.5 mg/kg, Piglet AUClast): 0.635 µg·h/mL
AUC(0-inf) (both sexes, pig, 1 mg/kg): 3.18 µg·h/mL
AUC(0-t) (both sexes, pig, 1 mg/kg, Piglet AUClast): 2.47 µg·h/mL
AUC(0-inf) (both sexes, pig, 1.5 mg/kg): 4.62 µg·h/mL
AUC(0-t) (both sexes, pig, 1.5 mg/kg, Piglet AUClast): 3.9 µg·h/mL
AUC(0-inf) (both sexes, pig, 2 mg/kg): 3.65 µg·h/mL
AUC(0-t) (both sexes, pig, 2 mg/kg, Piglet AUClast): 3.22 µg·h/mL
half-life (both sexes, pig, im): 30.9 to 48.7 h
AUC(0-inf) (both sexes, pig, im, 0.5 mg/kg): 0.69 µg·h/mL
Cmax (both sexes, pig, im, 0.5 mg/kg): 0.00953 µg/mL
Tmax (both sexes, pig, im, 0.5 mg/kg): 24 h
AUC(0-t) (both sexes, pig, im, 0.5 mg/kg, AUC 0-24 h): 0.176 µg·h/mL
AUC(0-t) (both sexes, pig, im, 0.5 mg/kg, AUC0-24h): 0.176 µg·h/mL
AUC(0-t) (both sexes, pig, im, 0.5 mg/kg, AUC0-last): 0.635 µg·h/mL
AUC(0-t) (both sexes, pig, im, 0.5 mg/kg, AUClast): 0.635 µg·h/mL
MRT last (both sexes, pig, im, 0.5 mg/kg, MRT0-last): 44.8 h
MRT last (both sexes, pig, im, 0.5 mg/kg, MRT last): 44.8 h
AUC(0-inf) (both sexes, pig, im, 1 mg/kg): 3.18 µg·h/mL
Cmax (both sexes, pig, im, 1 mg/kg): 0.031 µg/mL
Tmax (both sexes, pig, im, 1 mg/kg): 24 h
AUC(0-t) (both sexes, pig, im, 1 mg/kg, AUC 0-24 h): 0.407 µg·h/mL
AUC(0-t) (both sexes, pig, im, 1 mg/kg, AUC0-24h): 0.407 µg·h/mL
AUC(0-t) (both sexes, pig, im, 1 mg/kg, AUC0-last): 2.47 µg·h/mL
AUC(0-t) (both sexes, pig, im, 1 mg/kg, AUClast): 2.47 µg·h/mL
MRT last (both sexes, pig, im, 1 mg/kg, MRT0-last): 55.4 h
MRT last (both sexes, pig, im, 1 mg/kg, MRT last): 55.4 h
AUC(0-inf) (both sexes, pig, im, 1.5 mg/kg): 4.62 µg·h/mL
Cmax (both sexes, pig, im, 1.5 mg/kg): 0.0533 µg/mL
Tmax (both sexes, pig, im, 1.5 mg/kg): 24 h
AUC(0-t) (both sexes, pig, im, 1.5 mg/kg, AUC 0-24 h): 0.662 µg·h/mL
AUC(0-t) (both sexes, pig, im, 1.5 mg/kg, AUC0-24h): 0.662 µg·h/mL
AUC(0-t) (both sexes, pig, im, 1.5 mg/kg, AUC0-last): 3.9 µg·h/mL
AUC(0-t) (both sexes, pig, im, 1.5 mg/kg, AUClast): 3.9 µg·h/mL
MRT last (both sexes, pig, im, 1.5 mg/kg, MRT0-last): 54.4 h
MRT last (both sexes, pig, im, 1.5 mg/kg, MRT last): 52.4 h
AUC(0-inf) (both sexes, pig, im, 2 mg/kg): 3.65 µg·h/mL
Cmax (both sexes, pig, im, 2 mg/kg): 0.044 µg/mL
Tmax (both sexes, pig, im, 2 mg/kg): 24 h
AUC(0-t) (both sexes, pig, im, 2 mg/kg, AUC 0-24 h): 0.609 µg·h/mL
AUC(0-t) (both sexes, pig, im, 2 mg/kg, AUC0-24h): 0.609 µg·h/mL
AUC(0-t) (both sexes, pig, im, 2 mg/kg, AUC0-last): 3.22 µg·h/mL
AUC(0-t) (both sexes, pig, im, 2 mg/kg, AUClast): 3.22 µg·h/mL
MRT last (both sexes, pig, im, 2 mg/kg, MRT0-last): 51.5 h
MRT last (both sexes, pig, im, 2 mg/kg, MRT last): 51.5 h
AUMC (pig, 0.5 mg/kg): 28433.00 h^2 × ng/mL
AUMClast (pig, 0.5 mg/kg): 28,443.00 h * h * ng/mL
AUMC (pig, 1 mg/kg): 136805.00 h^2 × ng/mL
AUMClast (pig, 1 mg/kg): 136,805.00 h * h * ng/mL
AUMC (pig, 1.5 mg/kg): 204246.00 h^2 × ng/mL
AUMClast (pig, 1.5 mg/kg): 204,246.00 h * h * ng/mL
AUMC (pig, 2 mg/kg): 166016.00 h^2 × ng/mL
AUMClast (pig, 2 mg/kg): 166,016.00 h * h * ng/mL
AUCINF (pig, im, 0.5 mg/kg): 0.69047 µg·h/mL
AUC_Exp (pig, im, 0.5 mg/kg): 0.08%
AUC∞ extrpl (pig, im, 0.5 mg/kg): 0.08%
AUCINF (pig, im, 1 mg/kg): 3.178 µg·h/mL
AUC_Exp (pig, im, 1 mg/kg): 0.22%
AUC∞ extrpl (pig, im, 1 mg/kg): 0.22%
AUCINF (pig, im, 1.5 mg/kg): 4.61517 µg·h/mL
AUC_Exp (pig, im, 1.5 mg/kg): 0.16%
AUC∞ extrpl (pig, im, 1.5 mg/kg): 0.16%
AUCINF (pig, im, 2 mg/kg): 3.65232 µg·h/mL
AUC_Exp (pig, im, 2 mg/kg): 0.12%
AUC∞ extrpl (pig, im, 2 mg/kg): 0.12%
Lamda_HL (0.5 mg/kg): 30.86 h
Lamda_Z (0.5 mg/kg): 0.02 h⁻¹
λZ (0.5 mg/kg): 0.02 h⁻¹
Lamda_HL (1 mg/kg): 48.71 h
Lamda_Z (1 mg/kg): 0.01 h⁻¹
λZ (1 mg/kg): 0.01 h⁻¹
Lamda_HL (1.5 mg/kg): 37.91 h
Lamda_Z (1.5 mg/kg): 0.02 h⁻¹
λZ (1.5 mg/kg): 0.05 h⁻¹
Lamda_HL (2 mg/kg): 32.42 h
Lamda_Z (2 mg/kg): 0.02 h⁻¹
λZ (2 mg/kg): 0.02 h⁻¹
T1/2λZ (im, 0.5 mg/kg): 30.86 h
T1/2λZ (im, 1 mg/kg): 48.71 h
T1/2λZ (im, 1.5 mg/kg): 37.91 h
T1/2λZ (im, 2 mg/kg): 32.42 h
